Measured values published in ChEMBL document CHEMBL1201862, “PubChem BioAssay data set” (2004).
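These data come from cells grown in 96-well plates and exposed to compound for 48 hours at five concentrations. GI50 marks 50% less growth.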 Activity calls are given as the source filed them. No stated cut-off is given here; in the data, active = GI50 up to about 1.1 µM and inactive = higher.

Key:
Experiment in all cases: NCI-60 cell line screen, 48 h
786-0 = system: 786-0
A498 = system: A498
A549 = system: A549
ACHN = system: ACHN
BT-549 = system: BT-549
CAKI-1 = system: CAKI-1
CCRF-CEM = system: CCRF-CEM
COLO 205 = system: COLO 205
DU-145 = system: DU-145
EKVX = system: EKVX
HCC 2998 = system: HCC 2998
HCT-116 = system: HCT-116
HCT-15 = system: HCT-15
HL-60 = system: HL-60
HOP-62 = system: HOP-62
HOP-92 = system: HOP-92
HT-29 = system: HT-29
Hs-578T = system: Hs-578T
IGROV-1 = system: IGROV-1
K562 = system: K562
KM12 = system: KM12
LOX IMVI = system: LOX IMVI
M14 = system: M14
MCF7 = system: MCF7
MDA-MB-231 = system: MDA-MB-231
MDA-MB-435 = system: MDA-MB-435
MDA-N = system: MDA-N
MOLT-4 = system: MOLT-4
Malme-3M = system: Malme-3M
NCI-H23 = system: NCI-H23
NCI-H460 = system: NCI-H460
NCI-H522 = system: NCI-H522
NCI/ADR-RES = system: NCI/ADR-RES
OVCAR-3 = system: OVCAR-3
OVCAR-5 = system: OVCAR-5
OVCAR-8 = system: OVCAR-8
PC-3 = system: PC-3
RPMI-8226 = system: RPMI-8226
RXF 393 = system: RXF 393
SF-268 = system: SF-268
SF-295 = system: SF-295
SF-539 = system: SF-539
SK-MEL-28 = system: SK-MEL-28
SK-MEL-2 = system: SK-MEL-2
SK-MEL-5 = system: SK-MEL-5
SK-OV-3 = system: SK-OV-3
SN12C = system: SN12C
SNB-19 = system: SNB-19
SNB-75 = system: SNB-75
SR = system: SR
SW-620 = system: SW-620
T47D = system: T47D
TK-10 = system: TK-10
U-251 = system: U-251
UACC-257 = system: UACC-257
UACC-62 = system: UACC-62
UO-31 = system: UO-31
NCI-H226 = system: NCI-H226
OVCAR-4 = system: OVCAR-4

OB(O)c1ccccc1C#Cc1ccccc1B(O)O
GI50 (786-0): 28.4 µM (inactive) | GI50 (A498): 3.04 µM (inactive) | GI50 (A549): 18.5 µM (inactive) | GI50 (ACHN): 20.7 µM (inactive) | GI50 (BT-549): 12.2 µM (inactive) | GI50 (CAKI-1): 3.09 µM (inactive) | GI50 (CCRF-CEM): 20.1 µM (inactive) | GI50 (COLO 205): 16.2 µM (inactive) | GI50 (DU-145): 15.9 µM (inactive) | GI50 (EKVX): 16.9 µM (inactive) | GI50 (HCC 2998): 17.7 µM (inactive) | GI50 (HCT-116): 18.1 µM (inactive) | GI50 (HCT-15): 20.9 µM | GI50 (HL-60): 21.4 µM (inactive) | GI50 (HOP-62): 23.9 µM (inactive) | GI50 (HOP-92): 23.3 µM (inactive) | GI50 (HT-29): 42.7 µM (inactive) | GI50 (Hs-578T): 14.6 µM (inactive) | GI50 (IGROV-1): 3.14 µM (inactive) | GI50 (K562): 38.3 µM (inactive) | GI50 (KM12): 13.9 µM (inactive) | GI50 (LOX IMVI): 19 µM (inactive) | GI50 (M14): 22.7 µM (inactive) | GI50 (MCF7): 3.13 µM (inactive) | GI50 (MDA-MB-231): 20.8 µM (inactive) | GI50 (MDA-MB-435): 19.7 µM (inactive) | GI50 (MDA-N): 21.2 µM (inactive) | GI50 (MOLT-4): 40.5 µM (inactive) | GI50 (Malme-3M): 17.1 µM (inactive) | GI50 (NCI-H23): 24 µM (inactive) | GI50 (NCI-H460): 14.4 µM (inactive) | GI50 (NCI-H522): 14.6 µM (inactive) | GI50 (NCI/ADR-RES): 25.5 µM (inactive) | GI50 (OVCAR-3): 17.1 µM (inactive) | GI50 (OVCAR-5): 27.4 µM (inactive) | GI50 (OVCAR-8): 22.6 µM (inactive) | GI50 (PC-3): 22.1 µM (inactive) | GI50 (RPMI-8226): 20.6 µM (inactive) | GI50 (RXF 393): 11.3 µM (inactive) | GI50 (SF-268): 11.5 µM (inactive) | GI50 (SF-295): 22.9 µM (inactive) | GI50 (SF-539): 18.4 µM (inactive) | GI50 (SK-MEL-28): 35.6 µM (inactive) | GI50 (SK-MEL-2): 11.5 µM (inactive) | GI50 (SK-MEL-5): 14.8 µM (inactive) | GI50 (SK-OV-3): 24 µM (inactive) | GI50 (SN12C): 23.6 µM (inactive) | GI50 (SNB-19): 21.8 µM (inactive) | GI50 (SNB-75): 19 µM (inactive) | GI50 (SR): 19.5 µM (inactive) | GI50 (SW-620): 20.1 µM (inactive) | GI50 (T47D): 2.98 µM (inactive) | GI50 (TK-10): 17.1 µM (inactive) | GI50 (U-251): 19.2 µM (inactive) | GI50 (UACC-257): 0.55 µM (active) | GI50 (UACC-62): 14.5 µM (inactive) | GI50 (UO-31): 20.3 µM (inactive)

O=C1/C(=C/c2ccccc2)N=C(c2ccccc2)N1n1c(-c2ccccc2)nc2ccccc2c1=O
GI50 (786-0): > 100 µM (inactive) | GI50 (A498): 92 µM (inactive) | GI50 (A549): 47.6 µM (inactive) | GI50 (ACHN): 89.1 µM (inactive) | GI50 (BT-549): 31.6 µM (inactive) | GI50 (CCRF-CEM): 32.8 µM (inactive) | GI50 (COLO 205): > 100 µM (inactive) | GI50 (DU-145): 83 µM (inactive) | GI50 (EKVX): 48.6 µM (inactive) | GI50 (HCC 2998): > 100 µM (inactive) | GI50 (HCT-116): 53 µM (inactive) | GI50 (HCT-15): 72.4 µM | GI50 (HL-60): 33.3 µM (inactive) | GI50 (HOP-62): > 100 µM (inactive) | GI50 (HOP-92): 97.5 µM (inactive) | GI50 (HT-29): 70.5 µM (inactive) | GI50 (Hs-578T): 35.2 µM (inactive) | GI50 (IGROV-1): > 100 µM (inactive) | GI50 (K562): 61.7 µM (inactive) | GI50 (KM12): 61.7 µM (inactive) | GI50 (LOX IMVI): 35.6 µM (inactive) | GI50 (M14): > 100 µM (inactive) | GI50 (MCF7): 34 µM (inactive) | GI50 (MDA-MB-231): > 100 µM (inactive) | GI50 (MDA-MB-435): 87.9 µM (inactive) | GI50 (MDA-N): 54.8 µM (inactive) | GI50 (MOLT-4): 30.6 µM (inactive) | GI50 (Malme-3M): > 100 µM (inactive) | GI50 (NCI-H226): 64 µM (inactive) | GI50 (NCI-H23): 56.1 µM (inactive) | GI50 (NCI-H460): 58.9 µM (inactive) | GI50 (NCI-H522): 46.6 µM (inactive) | GI50 (NCI/ADR-RES): 63.8 µM (inactive) | GI50 (OVCAR-3): 57.9 µM (inactive) | GI50 (OVCAR-4): 60 µM (inactive) | GI50 (OVCAR-5): > 100 µM (inactive) | GI50 (OVCAR-8): > 100 µM (inactive) | GI50 (PC-3): 57.7 µM (inactive) | GI50 (RPMI-8226): 28.8 µM (inactive) | GI50 (RXF 393): 86.5 µM (inactive) | GI50 (SF-268): 64.6 µM (inactive) | GI50 (SF-295): 91 µM (inactive) | GI50 (SF-539): 83 µM (inactive) | GI50 (SK-MEL-28): 74.3 µM (inactive) | GI50 (SK-MEL-5): 38 µM (inactive) | GI50 (SK-OV-3): > 100 µM (inactive) | GI50 (SN12C): > 100 µM (inactive) | GI50 (SNB-19): 52.8 µM (inactive) | GI50 (SNB-75): > 100 µM (inactive) | GI50 (SR): 31 µM (inactive) | GI50 (SW-620): > 100 µM (inactive) | GI50 (T47D): > 100 µM (inactive) | GI50 (TK-10): > 100 µM (inactive) | GI50 (U-251): 41.8 µM (inactive) | GI50 (UACC-257): > 100 µM (inactive) | GI50 (UACC-62): 31 µM (inactive) | GI50 (UO-31): 83.2 µM (inactive)

Cc1oc2c(cc(O)c3cc(O)ccc32)c2cccc1-2
GI50 (786-0): > 100 µM (inactive) | GI50 (A498): > 100 µM (inactive) | GI50 (A549): > 100 µM (inactive) | GI50 (ACHN): > 100 µM (inactive) | GI50 (BT-549): 0.697 µM (active) | GI50 (CAKI-1): > 100 µM (inactive) | GI50 (CCRF-CEM): 43.5 µM (inactive) | GI50 (COLO 205): > 100 µM (inactive) | GI50 (DU-145): > 100 µM (inactive) | GI50 (EKVX): > 100 µM (inactive) | GI50 (HCC 2998): > 100 µM (inactive) | GI50 (HCT-116): > 100 µM (inactive) | GI50 (HCT-15): > 100 µM | GI50 (HL-60): > 100 µM (inactive) | GI50 (HOP-62): > 100 µM (inactive) | GI50 (HOP-92): > 100 µM (inactive) | GI50 (HT-29): > 100 µM (inactive) | GI50 (Hs-578T): > 100 µM (inactive) | GI50 (IGROV-1): > 100 µM (inactive) | GI50 (K562): > 100 µM (inactive) | GI50 (KM12): > 100 µM (inactive) | GI50 (LOX IMVI): > 100 µM (inactive) | GI50 (M14): > 100 µM (inactive) | GI50 (MCF7): 33.4 µM (inactive) | GI50 (MDA-MB-231): > 100 µM (inactive) | GI50 (MDA-MB-435): > 100 µM (inactive) | GI50 (MDA-N): > 100 µM (inactive) | GI50 (MOLT-4): > 100 µM (inactive) | GI50 (Malme-3M): > 100 µM (inactive) | GI50 (NCI-H23): > 100 µM (inactive) | GI50 (NCI-H460): > 100 µM (inactive) | GI50 (NCI-H522): 35.2 µM (inactive) | GI50 (NCI/ADR-RES): > 100 µM (inactive) | GI50 (OVCAR-3): > 100 µM (inactive) | GI50 (OVCAR-5): > 100 µM (inactive) | GI50 (OVCAR-8): > 100 µM (inactive) | GI50 (PC-3): > 100 µM (inactive) | GI50 (RPMI-8226): > 100 µM (inactive) | GI50 (RXF 393): > 100 µM (inactive) | GI50 (SF-268): > 100 µM (inactive) | GI50 (SF-295): > 100 µM (inactive) | GI50 (SF-539): > 100 µM (inactive) | GI50 (SK-MEL-28): > 100 µM (inactive) | GI50 (SK-MEL-2): > 100 µM (inactive) | GI50 (SK-MEL-5): > 100 µM (inactive) | GI50 (SK-OV-3): > 100 µM (inactive) | GI50 (SN12C): > 100 µM (inactive) | GI50 (SNB-19): > 100 µM (inactive) | GI50 (SNB-75): > 100 µM (inactive) | GI50 (SR): 37 µM (inactive) | GI50 (SW-620): > 100 µM (inactive) | GI50 (T47D): 42.1 µM (inactive) | GI50 (TK-10): > 100 µM (inactive) | GI50 (U-251): > 100 µM (inactive) | GI50 (UACC-257): > 100 µM (inactive) | GI50 (UACC-62): > 100 µM (inactive) | GI50 (UO-31): > 100 µM (inactive)
